Results on five compounds are retold here after patent EP0586229A1, “3-Hydroxy-3-(subst-akyl)-pyrrolidines as 5-lipoxygenase inhibitors” (ZENECA LIMITED, priority 1992, dated 1994).

Assay [1] concerns the target T1, 5-LO (Homo sapiens, UniProt P09917).
T1 construct: incubating a test compound with heparinised human blood, prior to challenge with the calcium ionophore A23187; endogenous in cells; host or cells: heparinised human whole blood (blood cells)
T1 sequence (P09917 1-674): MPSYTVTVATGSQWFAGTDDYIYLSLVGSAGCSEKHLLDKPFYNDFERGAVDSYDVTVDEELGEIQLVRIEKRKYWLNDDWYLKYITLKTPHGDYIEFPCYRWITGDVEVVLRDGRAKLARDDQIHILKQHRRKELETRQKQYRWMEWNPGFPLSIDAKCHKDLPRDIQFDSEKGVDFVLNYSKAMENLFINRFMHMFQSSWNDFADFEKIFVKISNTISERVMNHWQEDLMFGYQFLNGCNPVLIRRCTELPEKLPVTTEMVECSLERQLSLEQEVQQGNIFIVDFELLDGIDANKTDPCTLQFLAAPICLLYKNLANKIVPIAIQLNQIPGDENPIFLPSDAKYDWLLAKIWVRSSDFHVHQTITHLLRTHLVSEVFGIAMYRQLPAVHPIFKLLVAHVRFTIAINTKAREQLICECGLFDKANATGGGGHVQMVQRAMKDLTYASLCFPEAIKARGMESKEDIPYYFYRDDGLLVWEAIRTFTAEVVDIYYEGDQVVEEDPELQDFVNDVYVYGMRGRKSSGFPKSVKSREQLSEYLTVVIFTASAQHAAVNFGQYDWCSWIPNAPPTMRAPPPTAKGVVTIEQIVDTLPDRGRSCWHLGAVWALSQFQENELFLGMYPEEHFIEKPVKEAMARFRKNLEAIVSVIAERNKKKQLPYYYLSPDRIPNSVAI
Briefly: Test a): in vitro heparinised human blood challenged with calcium ionophore A23187, radioimmunoassay of LTB₄. The format is cell-based. Particulars: A23187 challenge, read-out: IC₅₀ against LTB₄ in test (a). An excerpt: As stated previously, the compounds of the formula I are inhibitors of the enzyme 5-LO. […] J. Pharmacol. 1985, 84, 34P) which involve the use of a protein-LTB₄ conjugate produced using the procedure of Young et alia (Prostaglandins, 1983, 26(4), 605-613). The effects of a test compound on the enzyme cyclooxygenase (which is involved in the alternative metabolic pathway for arachidonic acid and gives rise to prostaglandins, thromboxanes and related metabolites) may be measured at the same time using the specific radioimmunoassay for thromboxane B₂(TxB₂) described by Carey and Forder (see above). This test provides an indication of the effects of a test compound against 5-LO and also cyclooxygenase in the presence of blood cells and proteins. It permits the selectivity of the inhibitory effect on 5-LO or cyclooxygenase to be assessed. • b) An ex vivo assay system, which is a variation of test a) above, involving administration to a group of rats of a test compound (usually orally as the suspension produced when a solution of the test compound in dimethylsulphoxide is added to carboxymethylcellulose), blood collection, heparinisation, challenge with A23187 and radioimmunoassay of LTB₄ and TxB₂. This test provides an indication of the bioavailability of a test compound as an inhibitor of 5-LO or cyclooxygenase. • c) An in vivo system involving measuring the effects of a test compound administered orally against the liberation of LTB₄ induced by zymosan within an air pouch generated within the subcutaneous tissue of the back of male rats. The rats are anaesthetised and air pouches are formed by the injection of sterile air (20ml). A further injection of air (10ml) is similarly given after 3 days. At 6 days after the initial air injection the test compound is administered (usually orally as the suspension produced when a solution of the test compound in dimethylsulphoxide is added to hydroxypropylmethylcellulose), followed by the intrapouch injection of zymosan (1ml of a 1% suspension in physiological saline). After 3 hours the rats are killed, the air pouches are lavaged with physiological saline, and the specific radioimmunoassay described above is used to assay LTB₄ in the washings. This test provides an indication of inhibitory effects against 5-LO in an inflammatory milieu.

The subject of assay [2] is 5-LO. Briefly: Test c): in vivo zymosan-induced LTB₄ liberation in subcutaneous air pouch. Particulars: oral, male rats, 3 hours. An excerpt:
As stated previously, the compounds of the formula I are inhibitors of the enzyme 5-LO. […] J. Pharmacol. 1985, 84, 34P) which involve the use of a protein-LTB₄ conjugate produced using the procedure of Young et alia (Prostaglandins, 1983, 26(4), 605-613). The effects of a test compound on the enzyme cyclooxygenase (which is involved in the alternative metabolic pathway for arachidonic acid and gives rise to prostaglandins, thromboxanes and related metabolites) may be measured at the same time using the specific radioimmunoassay for thromboxane B₂(TxB₂) described by Carey and Forder (see above). This test provides an indication of the effects of a test compound against 5-LO and also cyclooxygenase in the presence of blood cells and proteins. It permits the selectivity of the inhibitory effect on 5-LO or cyclooxygenase to be assessed. • b) An ex vivo assay system, which is a variation of test a) above, involving administration to a group of rats of a test compound (usually orally as the suspension produced when a solution of the test compound in dimethylsulphoxide is added to carboxymethylcellulose), blood collection, heparinisation, challenge with A23187 and radioimmunoassay of LTB₄ and TxB₂. […]

`CCn1c(=O)ccc2cc(COc3cccc(C4(OC)CCN(CC(F)(F)F)C4)c3)ccc21` (stereo not shown) [Example 5, 3-[3-(1-ethyl-2-oxo-1,2-dihydroquinolin-6-ylmethoxy)phenyl]-3-methoxy-1-(2,2,2-trifluoroethyl)pyrrolidine]: in assay [1], the IC50 came to 90 nM.

For `C#CCN1CCC(OC)(c2cccc(OCc3ccc4ccccc4c3)c2)C1` (stereo not shown) [Example 4, 3-methoxy-3-[3-(naphth-2-ylmethoxy)phenyl]-1-(prop-2-ynyl)pyrrolidine], the IC50 in assay [1] worked out at 60 nM.

On to `COC1(c2cc(F)cc(Sc3ccc4c(c3)CCC(=O)N4C)c2)CCN(CC(F)(F)F)C1` (stereo not shown) [Example 6, 3-[5-fluoro-3-(1-methyl-2-oxo-1,2,3,4-tetrahydroquinolin-6-ylthio)phenyl]-3-methoxy-1-(2,2,2-trifluoroethyl)pyrrolidine], for which, in assay [1], the IC50 was 30 nM. Besides, the “ED₅₀ versus LTB₄ in test (c)” value in assay [2] was “approximately 1.5 mg/kg”.

Regarding `COC1(c2cc(F)cc(Sc3ccc(C(C)=NO)cc3)c2)CCN(CC(F)(F)F)C1` (stereo not shown) [Example 32, 3-{5-fluoro-3-[4-(1-hydroxyiminoethyl)phenylthio]phenyl}-3-methoxy-1-(2,2,2-trifluoroethyl)pyrrolidine], the IC50 in assay [1] came to 40 nM. Further, the “ED₅₀ versus LTB₄ in test (c)” value in assay [2] was “approximately 0.5 mg/kg”.

As to `COC1(c2cccc(OCc3ccc4ccccc4c3)c2)CCN(C)C1` (stereo not shown) [Example 1, 3-methoxy-1-methyl-3-[3-(naphth-2-ylmethoxy)phenyl]pyrrolidine], the IC50 in assay [1] came to 210 nM.
